From patent publication US9708316B2 (BRISTOL-MYERS SQUIBB COMPANY, priority 2014, dated 2017) come the findings set out here.

Bounds are passed on as bounds.

The target in one experiment is T1, HIS-TGFβR1 T204D (Homo sapiens, UniProt P36897, T204D).
T1 sequence (P36897 34-503 T204D): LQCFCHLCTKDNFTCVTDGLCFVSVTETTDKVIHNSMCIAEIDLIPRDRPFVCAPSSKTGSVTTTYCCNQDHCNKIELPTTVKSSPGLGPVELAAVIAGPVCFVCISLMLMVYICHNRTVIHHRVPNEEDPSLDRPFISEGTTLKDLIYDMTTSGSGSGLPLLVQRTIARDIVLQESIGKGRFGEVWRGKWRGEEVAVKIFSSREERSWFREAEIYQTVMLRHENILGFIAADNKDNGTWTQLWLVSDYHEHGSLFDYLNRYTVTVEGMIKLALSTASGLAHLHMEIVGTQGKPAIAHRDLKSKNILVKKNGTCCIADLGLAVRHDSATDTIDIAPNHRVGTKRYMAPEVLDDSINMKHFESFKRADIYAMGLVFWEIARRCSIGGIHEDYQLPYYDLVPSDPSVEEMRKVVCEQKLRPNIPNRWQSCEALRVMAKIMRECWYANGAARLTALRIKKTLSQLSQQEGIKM
Description: HTRF probe-displacement assay, HIS-TGFβR1 T204D. The class given is binding. To be noted: read-out: TGFβR1 (μM) IC50. For orientation: Time-resolved FRET reads energy transfer from a long-lived donor to a nearby acceptor.

The next experiment concerns the target HIS-TGFβR2 WT (Homo sapiens, UniProt P37173). Description: HTRF probe-displacement assay, HIS-TGFβR2 WT. The class given is binding.

Chain of HIS-TGFβR2 WT (P37173 23-567): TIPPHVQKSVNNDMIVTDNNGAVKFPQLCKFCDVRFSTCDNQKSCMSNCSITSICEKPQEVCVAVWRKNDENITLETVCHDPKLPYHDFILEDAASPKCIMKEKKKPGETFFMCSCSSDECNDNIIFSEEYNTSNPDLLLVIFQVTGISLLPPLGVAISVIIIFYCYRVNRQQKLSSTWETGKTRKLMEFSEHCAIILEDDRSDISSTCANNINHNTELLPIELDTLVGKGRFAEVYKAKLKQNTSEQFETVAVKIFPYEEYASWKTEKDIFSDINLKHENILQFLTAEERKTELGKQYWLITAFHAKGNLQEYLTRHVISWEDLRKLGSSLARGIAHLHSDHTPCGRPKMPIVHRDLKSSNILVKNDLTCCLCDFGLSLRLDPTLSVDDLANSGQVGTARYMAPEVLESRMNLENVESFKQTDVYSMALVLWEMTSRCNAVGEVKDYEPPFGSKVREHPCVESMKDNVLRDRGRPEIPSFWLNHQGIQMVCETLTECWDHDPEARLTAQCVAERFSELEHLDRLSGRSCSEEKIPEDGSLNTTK

What is called IC50 is the concentration that inhibits the measured activity by half. Consider `COc1cnc2c(-c3cccc(C(F)F)n3)c(-c3ccnc(NC(=O)CN(C)C)c3)[nH]c2c1` [Example 117, N-(4-{3-[6-(Difluoromethyl)pyridin-2-yl]-6-methoxy-1H-pyrrolo[3,2-b]pyridin-2-yl}pyridin-2-yl)-2-(dimethylamino)acetamide], for which the half-maximal inhibitory concentration (IC50) is 0.003 µM on HIS-TGFβR1 T204D and 11.3 µM on HIS-TGFβR2 WT.

Take `COc1ccc(-c2c(-c3ccnc(NC(C)=O)c3)[nH]c3ccc(OC)nc23)cn1` [Example 76, N-(4-(5-Methoxy-3-(6-methoxypyridin-3-yl)-1H-pyrrolo[3,2-b]pyridin-2-yl)pyridin-2-yl)acetamide]: the IC50 on HIS-TGFβR1 T204D was 0.016 µM; at HIS-TGFβR2 WT it was 0.93 µM.

Turning to `CC(=O)Nc1cc(-c2[nH]c3cc(Cl)cnc3c2-c2cccc(C(F)F)n2)ccn1` [Example 171, N-(4-(6-Chloro-3-(6-(difluoromethyl)pyridin-2-yl)-1H-pyrrolo[3,2-b]pyridin-2-yl)pyridin-2-yl)acetamide], the figures for the IC50 at HIS-TGFβR1 T204D and at HIS-TGFβR2 WT were 0.001 µM and 10.8 µM, respectively.

For `COc1cnc2c(-c3ccc(OC)nc3)c(-c3ccnc(NC(C)=O)c3)[nH]c2c1` [Example 285, N-(4-(6-Methoxy-3-(6-methoxypyridin-3-yl)-1H-pyrrolo[3,2-b]pyridin-2-yl)pyridin-2-yl)acetamide], the values for the IC50 at HIS-TGFβR1 T204D and on HIS-TGFβR2 WT were 0.002 µM and 0.016 µM, respectively.

Regarding `COc1ccc(-c2c(-c3ccnc(NC(C)=O)c3)[nH]c3cc(C(O)C(F)(F)C(N)=O)cnc23)nc1` (stereo not drawn) [Example 295, 3-(2-(2-Acetamidopyridin-4-yl)-3-(5-methoxypyridin-2-yl)-1H-pyrrolo[3,2-b]pyridin-6-yl)-2,2-difluoro-3-hydroxypropanamide], the IC50 at HIS-TGFβR1 T204D was 0.001 µM; on HIS-TGFβR2 WT it was over 15 µM.

For the compound `CC(=O)Nc1cc(-c2[nH]c3c(C(F)F)ccnc3c2-c2cccc(C(F)F)n2)ccn1` [Example 149, N-{4-[7-(Difluoromethyl)-3-[6-(difluoromethyl)pyridin-2-yl]-1H-pyrrolo[3,2-b]pyridin-2-yl]pyridin-2-yl}acetamide], the IC50 at HIS-TGFβR1 T204D was determined as 0.002 µM; on HIS-TGFβR2 WT it was 8.37 µM.

Regarding `COc1ccc(-c2c(-c3ccnc(NC(=O)CN4CCOCC4)c3)[nH]c3cc(Cl)cnc23)nc1` [Example 250, N-(4-(6-Chloro-3-(5-methoxypyridin-2-yl)-1H-pyrrolo[3,2-b]pyridin-2-yl)pyridin-2-yl)-2-morpholinoacetamide], the results for the 50% inhibitory concentration (IC50) at HIS-TGFβR1 T204D and on HIS-TGFβR2 WT were 0.007 µM and over 15 µM, respectively.

Regarding `CC(=O)Nc1cc(-c2[nH]c3cc(C)cnc3c2-c2ncc(C(F)F)s2)ccn1` [Example 185, N-(4-(3-(5-(Difluoromethyl)thiazol-2-yl)-6-methyl-1H-pyrrolo[3,2-b]pyridin-2-yl)pyridin-2-yl)acetamide], the concentration for half-maximal inhibition (IC50) was 7 µM on HIS-TGFβR1 T204D and over 15 µM on HIS-TGFβR2 WT.

Regarding `CC(=O)Nc1cc(-c2[nH]c3c(CCO)ccnc3c2-c2cccc(C(F)F)n2)ccn1` [Example 155, N-(4-{3-[6-(Difluoromethyl)pyridin-2-yl]-7-(2-hydroxyethyl)-1H-pyrrolo[3,2-b]pyridin-2-yl}pyridin-2-yl)acetamide], the results for the IC50 at HIS-TGFβR1 T204D and on HIS-TGFβR2 WT were 0.001 µM and 3.47 µM, respectively.

For `COc1ccc(-c2c(-c3ccnc(NC(C)=O)c3)[nH]c3cc(OC)cnc23)nc1` [Example 284, N-(4-(6-Methoxy-3-(5-methoxypyridin-2-yl)-1H-pyrrolo[3,2-b]pyridin-2-yl)pyridin-2-yl)acetamide], the concentration for half-maximal inhibition (IC50) came out at 0.003 µM at HIS-TGFβR1 T204D and 5.22 µM on HIS-TGFβR2 WT.

On to `CC(=O)Nc1cc(-c2[nH]c3c(CO)ccnc3c2-c2nc(C)cs2)ccn1` [Example 214, N-(4-(7-(hydroxymethyl)-3-(4-methylthiazol-2-yl)-1H-pyrrolo[3,2-b]pyridin-2-yl)pyridin-2-yl)acetamide], for which the IC50 on HIS-TGFβR1 T204D amounted to 0.0014 µM; on HIS-TGFβR2 WT, 0.173 µM.

As to `CC(=O)Nc1cc(-c2[nH]c3cc(Cl)cnc3c2-c2cc(C)c(F)cn2)ccn1` [Example 44, N-{4-[6-Chloro-3-(5-fluoro-4-methylpyridin-2-yl)-1H-pyrrolo[3,2-b]pyridin-2-yl]pyridin-2-yl}acetamide], the IC50 on HIS-TGFβR1 T204D came to 0.027 µM; on HIS-TGFβR2 WT, 0.34 µM.
